Measured values from patent US7855177B1, “Methods and kits for preventing hypoglycemia” (Cebix Inc., priority 2009, dated 2010).

What was measured:
[1] = S.C.; cited from earlier work
[2] = system: type 1 diabetes patients with peripheral neuropathy; assay: Phase II trial: adverse events; conditions: for Total treatment emergent AEs of any severity, number / Total treatment emergent AEs possibly related to study drug, number: all SOCs; for Total Adverse Events, Moderate / Total Adverse Events, Severe: ITT data set, number of treatment emergent AEs
Procedure: The safety measurements comprised collection of AEs, spontaneously reported by the patient or recorded by the investigator at each clinical visit. Review of laboratory investigations, vital signs, and physical examinations was performed at the S/B visit, visit 2, and at end of study (visit 4). ECG was performed at the S/B visit and at visit 4.
An AE was classified as “unexpected event” (i.e., if not specifically listed in the Investigator's Brochure) in terms of nature, severity, or frequency. All AEs, including intercurrent illnesses and increased severity or frequency of sign/symptoms of a concomitant disease was reported and documented as described below. AEs were documented on an “Adverse Event/Serious Adverse Event” page of the CRF and in the patient's medical records. Any AE occurring at any time after the end of the study, considered to be caused by the study medication—and therefore a possible adverse drug reaction—was reported to the sponsor.
The period of observation for AEs extended from the time the patient started on trial medication until end of the study. AEs were divided into the categories “serious” and “non-serious”. This determined the procedure used to report/document the AE.
Regardless of the classification of an AE as serious or non-serious (see above), its severity was assessed as mild, moderate, or severe, according to medical criteria alone:
Descriptive statistics were used for safety variables. For lab parameters summary statistics were presented as change from baseline and between doses. The changes from baseline were calculated and compared with normal ranges. The safety analysis set included all patients who obtained at least one dose of the investigational drug. AEs were coded according to the MedDRA dictionary. The frequencies of AEs are tabulated by body system and included/preferred term.

[3] = High-dose C-peptide, SOC Blood and lymphatic system disorder
[4] = High-dose C-peptide, SOC Eye disorder
[5] = High-dose C-peptide, SOC Gastro-intestinal Disorders
[6] = High-dose C-peptide, SOC General disorders and administration site conditions
[7] = High-dose C-peptide, SOC Infections and infestations
[8] = High-dose C-peptide, SOC Injury poisoning, procedural complications
[9] = High-dose C-peptide, SOC Investigations
[10] = High-dose C-peptide, SOC Metabolism and nutritional disorders
[11] = High-dose C-peptide, SOC Musculoskeletal and connective tissue disorder
[12] = High-dose C-peptide, SOC Nervous system disorders
[13] = High-dose C-peptide, SOC Reproductive system and breast disorders
[14] = High-dose C-peptide, SOC Respiratory, thoracic, and mediastinal disorders
[15] = High-dose C-peptide, SOC Skin and subcutaneous tissue disorders
[16] = High-dose C-peptide, SOC Surgical and Medical
[17] = High-dose C-peptide, SOC Vascular disorders
[18] = Low-dose C-peptide, SOC Cardiac disorder
[19] = Low-dose C-peptide, SOC Eye disorder
[20] = Low-dose C-peptide, SOC Gastro-intestinal Disorders
[21] = Low-dose C-peptide, SOC Immune system disorders
[22] = Low-dose C-peptide, SOC Infections and infestations
[23] = Low-dose C-peptide, SOC Injury poisoning, procedural complications
[24] = Low-dose C-peptide, SOC Investigations
[25] = Low-dose C-peptide, SOC Metabolism and nutritional disorders
[26] = Low-dose C-peptide, SOC Musculoskeletal and connective tissue disorder
[27] = Low-dose C-peptide, SOC Nervous system disorders
[28] = Low-dose C-peptide, SOC Psychiatric disorders
[29] = Low-dose C-peptide, SOC Skin and subcutaneous tissue disorders
[30] = Low-dose C-peptide, SOC Surgical and Medical

CC(C)C[C@H](NC(=O)[C@H](C)NC(=O)[C@H](CC(C)C)NC(=O)[C@@H]1CCCN1C(=O)[C@H](CCC(N)=O)NC(=O)[C@H](CC(C)C)NC(=O)[C@H](CO)NC(=O)CNC(=O)[C@H](C)NC(=O)CNC(=O)[C@@H]1CCCN1C(=O)CNC(=O)CNC(=O)CNC(=O)[C@H](CC(C)C)NC(=O)[C@H](CCC(=O)O)NC(=O)[C@@H](NC(=O)[C@H](CCC(N)=O)NC(=O)CNC(=O)[C@@H](NC(=O)[C@H](CCC(N)=O)NC(=O)[C@H](CC(C)C)NC(=O)[C@H](CC(=O)O)NC(=O)[C@H](CCC(=O)O)NC(=O)[C@H](C)NC(=O)[C@@H](N)CCC(=O)O)C(C)C)C(C)C)C(=O)N[C@@H](CCC(=O)O)C(=O)NCC(=O)N[C@@H](CO)C(=O)N[C@@H](CC(C)C)C(=O)N[C@@H](CCC(N)=O)C(=O)O [C-peptide]
bioavailability of subcutaneously administered C-peptide [1]: approximately 80%
tolerability ([2]; 500-1,500 nmoL/24 h): well tolerated
Anemia, number of AEs [2, 3]: 1
Hemorrhage, number of AEs [2, 3]: 1
Macular edema, number of AEs [2, 4]: 1
Vitreous hemorrhage, number of AEs [2, 4]: 1
Abdominal pain, number of AEs [2, 5]: 3
Aptyalism, number of AEs [2, 5]: 1
Diarrhea, number of AEs [2, 5]: 1
Gastritis, number of AEs [2, 5]: 1
Nausea, number of AEs [2, 5]: 4
Tooth ache, number of AEs [2, 5]: 3
Chest pain, number of AEs [2, 6]: 2
Fatigue, number of AEs [2, 6]: 2
Feeling abnormal, number of AEs [2, 6]: 3
Injection site burning, number of AEs [2, 6]: 1 (1)
Injection site burning, number of AEs possibly related to study drug [2, 6]: 1 (1)
Gastroenteritis, number of AEs [2, 7]: 7
Otitis, number of AEs [2, 7]: 2
Pharyngitis, number of AEs [2, 7]: 2
Sepsis, number of AEs [2, 7]: 1
Sinusitis, number of AEs [2, 7]: 2
Skin infection, number of AEs [2, 7]: 1
Tonsilitis, number of AEs [2, 7]: 2
Tooth infection, number of AEs [2, 7]: 2
Upper respiratory tract infection, number of AEs [2, 7]: 1
Urinary tract infection, number of AEs [2, 7]: 1
Blister, number of AEs [2, 8]: 2
Dizziness, number of AEs [2, 8]: 1
Eye injury, number of AEs [2, 8]: 1
Food poisoning, number of AEs [2, 8]: 1
Joint sprain ankle, number of AEs [2, 8]: 1
Knee injury, number of AEs [2, 8]: 1
Rib fracture/injury, number of AEs [2, 8]: 2
Scar, number of AEs [2, 8]: 1
Tooth injury, number of AEs [2, 8]: 1
Cardiac murmur, number of AEs [2, 9]: 1
Hematuria, number of AEs [2, 9]: 1
Hepatic enzyme increase, number of AEs [2, 9]: 2
Hypercalcemia, number of AEs [2, 9]: 1
Leucopenia, number of AEs [2, 9]: 1
Lymph node enlargement, number of AEs [2, 9]: 1
Hyperglycemia, number of AEs [2, 10]: 1
Hypoglycemia, number of AEs [2, 10]: 5
Hypoglycemia, number of AEs possibly related to study drug [2, 10]: 1
Hypoglycemic coma, number of AEs [2, 10]: 2
Vitamin B12 deficiency, number of AEs [2, 10]: 1
Arthralgia, number of AEs [2, 11]: 3
Arthritis, number of AEs [2, 11]: 1
Arthropathy, number of AEs [2, 11]: 1
Back pain, number of AEs [2, 11]: 2
Epicondylitis, number of AEs [2, 11]: 1
Muscle spasm, number of AEs [2, 11]: 1
Muscular atrophy, number of AEs [2, 11]: 1
Myalgia, number of AEs [2, 11]: 1
Pain in extremity, number of AEs [2, 11]: 4
Pain in shoulder, number of AEs [2, 11]: 1
Tendinitis, number of AEs [2, 11]: 1
Tendosynovitis, number of AEs [2, 11]: 1
Torticollis, number of AEs [2, 11]: 1
Burning sensation, number of AEs [2, 12]: 1
Headache, number of AEs [2, 12]: 17
Hyperaesthesia, number of AEs [2, 12]: 1 (1)
Hyperaesthesia, number of AEs possibly related to study drug [2, 12]: 1 (1)
Migraine, number of AEs [2, 12]: 1
Paraesthesia, number of AEs [2, 12]: 2 (2)
Paraesthesia, number of AEs possibly related to study drug [2, 12]: 2 (2)
Restless legs syndrome, number of AEs [2, 12]: 1
Sciatica, number of AEs [2, 12]: 1
Sensory loss, number of AEs [2, 12]: 1
Vertigo, number of AEs [2, 12]: 1
Pregnancy, number of AEs ([2]; High-dose C-peptide, SOC Pregnancy, puerperium and perinatal conditions): 2
Menopausal disorder, number of AEs [2, 13]: 1
Menstration irregular, number of AEs [2, 13]: 1
Cough, number of AEs [2, 14]: 1
Epistaxis, number of AEs [2, 14]: 1
Skin induration, number of AEs [2, 15]: 1
Skin infection, number of AEs [2, 15]: 2
Sweating increased, number of AEs [2, 15]: 1
Limb operation, number of AEs [2, 16]: 1
Tooth extraction, number of AEs [2, 16]: 1
Arterial disorder, number of AEs [2, 17]: 1
Hypertension, number of AEs [2, 17]: 1
Hypotension, number of AEs [2, 17]: 1
Total treatment emergent AEs of any severity, number ([2]; High-dose C-peptide): 156
Total treatment emergent AEs possibly related to study drug, number ([2]; High-dose C-peptide): 5
Anemia, number of AEs ([2]; Low-dose C-peptide, SOC Blood and lymphatic system disorder): 1
Cardiac arrhythmia, number of AEs [2, 18]: 1
ST elevation (ECG), number of AEs [2, 18]: 1
Tachycardia (stress, number of AEs) [2, 18]: 1
Dacryocanaliculitis, number of AEs [2, 19]: 1
Vision decreased, number of AEs [2, 19]: 1
Celiac disease, number of AEs [2, 20]: 1
Diarrhea, number of AEs [2, 20]: 2
Flatulence, number of AEs [2, 20]: 1
Nausea, number of AEs [2, 20]: 1
Reflux gastritis, number of AEs [2, 20]: 2
Tooth ache, number of AEs [2, 20]: 2
Pyrexia, number of AEs ([2]; Low-dose C-peptide, SOC General disorders and administration site conditions): 3
Allergic urticaria, number of AEs [2, 21]: 1
Dermatitis allergic, number of AEs [2, 21]: 1
Rheumarthritis, number of AEs [2, 21]: 1
Season allergy, number of AEs [2, 21]: 1
Borrelia infection, number of AEs [2, 22]: 1
Bronchitis, number of AEs [2, 22]: 1
Candidiasis, number of AEs [2, 22]: 2
Gastroenteritis, number of AEs [2, 22]: 2
Herpes simplex, number of AEs [2, 22]: 1
Herpeszoster, number of AEs [2, 22]: 1
Influenza, number of AEs [2, 22]: 1
Nasopharyngitis, number of AEs [2, 22]: 31
Otitis, number of AEs [2, 22]: 1
Pharyngitis, number of AEs [2, 22]: 1
Sinusitis, number of AEs [2, 22]: 4
Skin infection, number of AEs [2, 22]: 5
Tonsilitis, number of AEs [2, 22]: 1
Upper respiratory tract infection, number of AEs [2, 22]: 3
Urinary tract infection, number of AEs [2, 22]: 3
Joint sprain ankle, number of AEs [2, 23]: 1
Rib fracture/injury, number of AEs [2, 23]: 1
Skin injury, number of AEs [2, 23]: 2
Elevated serum, number of AEs [2, 24]: 1
Hepatic enzyme increase, number of AEs [2, 24]: 2
Hepatic enzyme increase, number of AEs possibly related to study drug [2, 24]: 1
Hyperkalaemia, number of AEs [2, 24]: 1
Weight increased, number of AEs [2, 24]: 1
Hyperglycemia, number of AEs [2, 25]: 1 (1)
Hyperglycemia, number of AEs possibly related to study drug [2, 25]: 1 (1)
Hyperlipidemia, number of AEs [2, 25]: 1
Hypoglycemia, number of AEs [2, 25]: 2
Hypoglycemia, number of AEs possibly related to study drug [2, 25]: 1
Hypoglycemic coma, number of AEs [2, 25]: 2
Insulin sensitivity, number of AEs [2, 25]: 1 (1)
Insulin sensitivity, number of AEs possibly related to study drug [2, 25]: 1 (1)
Arthralgia, number of AEs [2, 26]: 3
Arthritis, number of AEs [2, 26]: 1
Arthropathy, number of AEs [2, 26]: 2
Epicondylitis, number of AEs [2, 26]: 1
Exostosis, number of AEs [2, 26]: 2
Muscle cramp, number of AEs [2, 26]: 1
Musculoskeletal chest, number of AEs [2, 26]: 1
Myalgia, number of AEs [2, 26]: 3
Pain in extremity, number of AEs [2, 26]: 3
Pain in extremity, number of AEs possibly related to study drug [2, 26]: 1
Pain in neck, number of AEs [2, 26]: 1
Synovial disorder, number of AEs [2, 26]: 1
Tendinous contracture, number of AEs [2, 26]: 1
Carpal tunnel syndrome, number of AEs [2, 27]: 1
Dizziness, number of AEs [2, 27]: 2
Headache, number of AEs [2, 27]: 35
Hyperthermeasthesia, number of AEs [2, 27]: 2 (2)
Hyperthermeasthesia, number of AEs possibly related to study drug [2, 27]: 2 (2)
Hypoaesthesia, number of AEs [2, 27]: 2
Multiple sclerosis, number of AEs [2, 27]: 1
Paraesthesia, number of AEs [2, 27]: 2
Paraesthesia, number of AEs possibly related to study drug [2, 27]: 1
Depression, number of AEs [2, 28]: 1
Panic disorder, number of AEs [2, 28]: 1
Stress disorder, number of AEs [2, 28]: 1
Asthma, number of AEs ([2]; Low-dose C-peptide, SOC Respiratory, thoracic, and mediastinal disorders): 1
Dry skin, number of AEs [2, 29]: 1
Fibroma, number of AEs [2, 29]: 1
Skin induration, number of AEs [2, 29]: 2
Eye operation, number of AEs [2, 30]: 1
Limb operation, number of AEs [2, 30]: 1
Hypertension, number of AEs ([2]; Low-dose C-peptide, SOC Vascular disorders): 1
Total treatment emergent AEs of any severity, number ([2]; Low-dose C-peptide): 173
Total treatment emergent AEs possibly related to study drug, number ([2]; Low-dose C-peptide): 8
local reactions ([2]; S.C. injection, 500-1,500 nmoL/24 h): No local reactions
SAEs ([2]; high-dose C-peptide (1,500 nmoL/24 h)): Two
AEs possibly/probably related to the study drug ([2]; high-dose C-peptide group): 5
patients without reported AEs ([2]; high-dose C-peptide group): 6 patients
patients with AEs ([2]; high-dose C-peptide group, 44 out of 52 patients): 85%
Total Adverse Events, Moderate ([2]; high-dose C-peptide group): Moderate = 43
Total Adverse Events, Severe ([2]; high-dose C-peptide group): Severe = 9
relationship of SAEs to the trial medication ([2]; high-dose C-peptide, investigators' assessment): unlikely/not related
patients without reported AEs ([2]; low-dose C-peptide group): 8 patients
patients with AEs ([2]; low-dose C-peptide group, 48 out of 56 patients): 86%
Total Adverse Events, Moderate ([2]; low-dose C-peptide group): Moderate = 51
Total Adverse Events, Severe ([2]; low-dose C-peptide group): Severe = 1
